In patent publication US20100105081A1, “DETECTING FUNGI IN HUMAN SAMPLES” (MAYO MEDICAL VENTURES, priority 2004, published 2010):

Tested on: Alternaria
Assay: Total Alternaria polypeptides in nasal secretions of CRS patients before and after treatment (competitive immunoassay)
Format: in vivo, human
Settings: nasal secretion supernatants, change from baseline after treatment, N=6, paired samples
Description: Nasal secretions were obtained under endoscopic guidance using a sterile sinus secretion collector (Xomed Surgical Produces, Jacksonville, Fla.) from CRS patients before and after treatment with either placebo or amphotericin B. Each secretion specimen was extracted by adding twice the volume of 0.9% NaCl, vortexing, and centrifugation. The supernatants were stored at −20° C. To monitor changes in fungal antigen burden with treatment, total Alternaria polypeptides in nasal secretions were immunochemically quantitated essentially as described for latex polypeptides. Briefly, samples and a standard extract from Alternaria alternata competed with solid-phase Alternaria alternata polypeptides for rabbit anti-Alternaria IgG antibodies (ALK-Abello, Round Rock, Tex.). Radiolabeled, affinity-purified, goat anti-rabbit IgG was used for detection. The results are expressed as mass polypeptide per mL nasal secretion supernatants. The detection limit of the assay was 12 ng/mL for total Alternaria polypeptides. Sufficient quantities of mucus were not available to perform all the assays for each patient. The analyses were performed based on the availability of paired samples.

Question: How did the “Alternaria μg/mL, median change after treatment” value turn out when `C[C@@H]1[C@H](O)[C@@H](C)/C=C/C=C/C=C/C=C/C=C/C=C/C=C/[C@H](O[C@@H]2O[C@H](C)[C@@H](O)[C@H](N)[C@@H]2O)C[C@@H]2O[C@](O)(C[C@@H](O)C[C@@H](O)[C@H](O)CC[C@@H](O)C[C@@H](O)CC(=O)O[C@H]1C)C[C@H](O)[C@H]2C(=O)O` [Amphotericin B, amphotericin B] was run?
Answer: -0.30 µg/mL

Question: What about the “Alternaria μg/mL, range for change after treatment” value of the same compound?
Answer: -4.64 to 3.21 µg/mL
